Data as given in publication PMC3827223, “Bioorthogonal Small Molecule Imaging Agents Allow Single-Cell Imaging of MET” (PLoS ONE, 2013).
One block for each compound: values may come before it.

Tests used:
[1] = test system: MET phosphorylation (Y1234/1235) in OVCA429 cells; experiment: Western blot of HGF-stimulated MET phosphorylation in OVCA429 cells; format: cell-based, human; settings: for effect on MET phosphorylation: OVCA429 cells, 0.1, 0.5 or 1 μM pre-treatment 1 hr, 100 ng/ml HGF stimulation, Western blot densitometry
Description: Cells were serum-starved in media containing 0.1% fetal bovine serum ~16 hrs before the assay. […] Phosphorylation was then stimulated with 100 ng/ml HGF diluted in RPMI with 1 mg/ml BSA for 5 min at 37°C. Cell lysates were then prepared and run on a gel as described above. Western blot analysis was performed as described above using the MET and phospho-MET primary antibodies (1:1000). Total MET and phospho-MET expression was quantified using densitometry (ImageJ).

recombinant human MET = recombinant human MET (Homo sapiens, UniProt P08581); experiment: z'-LYTE FRET kinase activity assay, MET
Chain of recombinant human MET (P08581 25-1390): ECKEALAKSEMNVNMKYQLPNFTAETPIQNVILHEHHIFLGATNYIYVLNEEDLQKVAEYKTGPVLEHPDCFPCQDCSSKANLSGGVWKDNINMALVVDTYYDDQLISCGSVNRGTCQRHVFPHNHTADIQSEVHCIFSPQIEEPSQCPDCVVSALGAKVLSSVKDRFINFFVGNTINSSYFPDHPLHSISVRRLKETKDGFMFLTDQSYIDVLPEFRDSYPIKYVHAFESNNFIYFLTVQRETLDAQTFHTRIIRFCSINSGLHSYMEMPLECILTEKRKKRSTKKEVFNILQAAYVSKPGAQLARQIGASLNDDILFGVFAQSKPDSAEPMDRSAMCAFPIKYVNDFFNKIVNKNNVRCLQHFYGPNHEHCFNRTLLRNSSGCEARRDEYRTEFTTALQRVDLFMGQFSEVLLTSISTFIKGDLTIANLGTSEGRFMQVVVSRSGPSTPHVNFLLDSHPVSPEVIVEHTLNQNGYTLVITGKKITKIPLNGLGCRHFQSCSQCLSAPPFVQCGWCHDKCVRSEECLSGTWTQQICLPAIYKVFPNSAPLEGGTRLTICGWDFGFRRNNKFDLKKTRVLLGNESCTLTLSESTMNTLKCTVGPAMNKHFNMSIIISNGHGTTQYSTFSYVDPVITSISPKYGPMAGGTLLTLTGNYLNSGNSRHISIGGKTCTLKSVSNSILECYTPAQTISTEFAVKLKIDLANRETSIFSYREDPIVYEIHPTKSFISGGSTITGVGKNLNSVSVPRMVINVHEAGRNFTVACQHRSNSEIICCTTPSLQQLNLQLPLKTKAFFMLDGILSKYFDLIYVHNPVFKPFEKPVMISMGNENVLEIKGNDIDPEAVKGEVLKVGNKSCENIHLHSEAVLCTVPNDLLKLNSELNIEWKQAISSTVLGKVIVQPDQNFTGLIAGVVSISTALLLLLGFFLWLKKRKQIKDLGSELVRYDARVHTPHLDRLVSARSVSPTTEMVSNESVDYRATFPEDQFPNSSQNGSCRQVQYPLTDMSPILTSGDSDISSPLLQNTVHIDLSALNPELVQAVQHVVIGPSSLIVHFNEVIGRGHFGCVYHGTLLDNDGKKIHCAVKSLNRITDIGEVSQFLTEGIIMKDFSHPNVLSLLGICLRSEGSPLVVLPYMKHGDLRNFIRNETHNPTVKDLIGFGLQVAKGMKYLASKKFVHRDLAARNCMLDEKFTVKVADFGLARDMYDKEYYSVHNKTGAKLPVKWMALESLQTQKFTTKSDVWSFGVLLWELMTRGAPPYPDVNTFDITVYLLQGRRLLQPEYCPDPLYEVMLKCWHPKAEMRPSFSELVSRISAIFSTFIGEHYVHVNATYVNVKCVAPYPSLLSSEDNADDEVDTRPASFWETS
Description: (§1) The Tyr6 peptide kit was used to measure MET, RON, and AXL activity. The Tyr4 peptide kit was used for PDGFRα and the Tyr1 peptide kit was used to measure KDR activity. All assays were run in accordance with the manufacturer’s instructions, with minor modification. Briefly, MET, RON, and KDR were used at 0.2 μg/ml, 0.8 μg/ml, and 0.7 μg/ml, respectively. The kinase reaction buffer for MET, RON, and KDR was supplemented with 0.67% DMSO. AXL was used at 1.5 μg/ml and the reaction buffer was supplemented with 0.01% sodium azide and 0.67% DMSO. PDGFRα was used at 2.5 μg/ml and the reaction buffer was supplemented with 1mM DTT, 2mM MnCl2, and 0.67% DMSO. Inhibitors were prepared by 4-fold serial dilution at 75X the final concentration in 100% DMSO (8 μM to 0.1 nM). This stock was then diluted to 3X the final concentration in kinase reaction buffer. 5 μl of the 3X stock was added to the final 15 μl reaction volume. Both the z´-LYTE control phosho-peptide and the z´-LYTE peptide were used at a final concentration of 2 μM. […] Development reagent was then incubated for 1 hour at room temperature. […] IC50 values were obtained by fitting the dose-response curves using Prism 6 (GraphPad).

recombinant Human KDR = recombinant Human KDR (Homo sapiens, UniProt P35968); experiment: z'-LYTE FRET kinase activity assay, KDR
Chain of recombinant Human KDR (P35968 20-1356): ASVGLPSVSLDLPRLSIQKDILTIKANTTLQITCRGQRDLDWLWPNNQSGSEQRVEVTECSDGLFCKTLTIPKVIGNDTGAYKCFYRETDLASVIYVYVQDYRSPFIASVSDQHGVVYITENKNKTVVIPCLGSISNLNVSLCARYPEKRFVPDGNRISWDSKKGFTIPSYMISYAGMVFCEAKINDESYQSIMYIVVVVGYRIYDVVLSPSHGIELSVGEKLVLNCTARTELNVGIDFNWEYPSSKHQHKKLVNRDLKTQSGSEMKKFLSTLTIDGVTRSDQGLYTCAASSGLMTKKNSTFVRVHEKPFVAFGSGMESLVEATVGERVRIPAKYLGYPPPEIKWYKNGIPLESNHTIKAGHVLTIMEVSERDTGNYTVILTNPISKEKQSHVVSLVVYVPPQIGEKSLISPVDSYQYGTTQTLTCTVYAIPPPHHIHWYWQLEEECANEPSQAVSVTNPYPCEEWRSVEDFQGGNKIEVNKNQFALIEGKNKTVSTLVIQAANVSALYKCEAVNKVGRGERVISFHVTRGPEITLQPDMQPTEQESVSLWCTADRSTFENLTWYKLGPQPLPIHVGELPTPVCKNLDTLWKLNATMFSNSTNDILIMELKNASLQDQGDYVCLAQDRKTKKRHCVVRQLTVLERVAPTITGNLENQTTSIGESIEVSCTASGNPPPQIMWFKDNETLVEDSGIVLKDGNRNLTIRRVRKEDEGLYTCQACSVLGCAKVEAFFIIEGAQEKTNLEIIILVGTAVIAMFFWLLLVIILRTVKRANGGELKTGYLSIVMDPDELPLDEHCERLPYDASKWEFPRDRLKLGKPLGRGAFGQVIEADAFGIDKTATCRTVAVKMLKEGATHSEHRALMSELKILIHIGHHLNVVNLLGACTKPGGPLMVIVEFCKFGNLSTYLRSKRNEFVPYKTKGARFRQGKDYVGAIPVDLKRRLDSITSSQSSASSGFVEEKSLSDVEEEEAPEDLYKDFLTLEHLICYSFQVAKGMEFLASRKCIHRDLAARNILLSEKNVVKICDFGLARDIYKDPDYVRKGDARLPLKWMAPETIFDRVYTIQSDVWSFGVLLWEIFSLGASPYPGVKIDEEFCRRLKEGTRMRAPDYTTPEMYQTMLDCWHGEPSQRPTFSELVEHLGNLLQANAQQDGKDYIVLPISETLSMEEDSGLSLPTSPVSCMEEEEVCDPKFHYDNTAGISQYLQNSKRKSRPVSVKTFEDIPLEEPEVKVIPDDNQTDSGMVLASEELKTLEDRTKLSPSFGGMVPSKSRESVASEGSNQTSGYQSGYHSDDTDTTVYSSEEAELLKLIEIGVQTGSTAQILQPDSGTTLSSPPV
Description: as §1

recombinant Human RON = recombinant Human RON (Homo sapiens, UniProt Q04912); experiment: z'-LYTE FRET kinase activity assay, RON
Chain of recombinant Human RON (Q04912 25-1400): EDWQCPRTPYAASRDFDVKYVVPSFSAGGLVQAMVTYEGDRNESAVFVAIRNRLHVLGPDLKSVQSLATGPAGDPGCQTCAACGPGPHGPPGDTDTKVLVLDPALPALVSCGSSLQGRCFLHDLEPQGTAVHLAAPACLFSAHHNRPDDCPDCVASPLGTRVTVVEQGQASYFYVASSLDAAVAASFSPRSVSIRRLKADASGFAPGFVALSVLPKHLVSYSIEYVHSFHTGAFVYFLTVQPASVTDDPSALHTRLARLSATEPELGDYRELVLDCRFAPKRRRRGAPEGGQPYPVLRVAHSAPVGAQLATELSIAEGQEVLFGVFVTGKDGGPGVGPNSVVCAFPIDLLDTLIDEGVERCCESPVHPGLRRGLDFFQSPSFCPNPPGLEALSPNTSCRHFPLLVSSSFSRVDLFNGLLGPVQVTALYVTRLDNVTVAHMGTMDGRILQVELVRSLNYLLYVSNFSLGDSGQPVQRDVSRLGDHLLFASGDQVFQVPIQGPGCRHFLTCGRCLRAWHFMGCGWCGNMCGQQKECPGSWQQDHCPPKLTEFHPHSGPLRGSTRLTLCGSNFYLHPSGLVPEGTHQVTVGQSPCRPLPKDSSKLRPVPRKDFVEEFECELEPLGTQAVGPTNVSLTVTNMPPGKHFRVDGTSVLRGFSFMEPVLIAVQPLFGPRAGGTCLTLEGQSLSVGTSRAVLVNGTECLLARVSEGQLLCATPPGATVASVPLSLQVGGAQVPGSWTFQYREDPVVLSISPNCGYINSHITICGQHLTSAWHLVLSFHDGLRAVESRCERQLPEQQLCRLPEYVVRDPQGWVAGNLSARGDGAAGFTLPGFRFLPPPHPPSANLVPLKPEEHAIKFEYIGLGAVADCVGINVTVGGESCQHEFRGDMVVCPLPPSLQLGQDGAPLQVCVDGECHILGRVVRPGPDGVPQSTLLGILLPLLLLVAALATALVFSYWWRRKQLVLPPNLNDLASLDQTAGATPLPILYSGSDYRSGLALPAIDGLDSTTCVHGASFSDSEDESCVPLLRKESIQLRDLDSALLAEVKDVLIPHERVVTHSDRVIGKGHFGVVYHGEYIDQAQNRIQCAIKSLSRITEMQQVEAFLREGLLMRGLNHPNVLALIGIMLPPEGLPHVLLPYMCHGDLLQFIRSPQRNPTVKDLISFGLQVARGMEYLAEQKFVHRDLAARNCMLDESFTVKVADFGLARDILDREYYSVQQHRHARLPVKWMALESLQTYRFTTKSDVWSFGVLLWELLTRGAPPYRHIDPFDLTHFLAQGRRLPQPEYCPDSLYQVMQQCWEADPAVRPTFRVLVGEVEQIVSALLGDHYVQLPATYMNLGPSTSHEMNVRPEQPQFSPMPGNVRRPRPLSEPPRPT
Description: as §1

recombinant human AXL = target: T1, recombinant human AXL (Homo sapiens, UniProt P30530); experiment: z'-LYTE FRET kinase activity assay, AXL
T1 sequence (P30530 26-894): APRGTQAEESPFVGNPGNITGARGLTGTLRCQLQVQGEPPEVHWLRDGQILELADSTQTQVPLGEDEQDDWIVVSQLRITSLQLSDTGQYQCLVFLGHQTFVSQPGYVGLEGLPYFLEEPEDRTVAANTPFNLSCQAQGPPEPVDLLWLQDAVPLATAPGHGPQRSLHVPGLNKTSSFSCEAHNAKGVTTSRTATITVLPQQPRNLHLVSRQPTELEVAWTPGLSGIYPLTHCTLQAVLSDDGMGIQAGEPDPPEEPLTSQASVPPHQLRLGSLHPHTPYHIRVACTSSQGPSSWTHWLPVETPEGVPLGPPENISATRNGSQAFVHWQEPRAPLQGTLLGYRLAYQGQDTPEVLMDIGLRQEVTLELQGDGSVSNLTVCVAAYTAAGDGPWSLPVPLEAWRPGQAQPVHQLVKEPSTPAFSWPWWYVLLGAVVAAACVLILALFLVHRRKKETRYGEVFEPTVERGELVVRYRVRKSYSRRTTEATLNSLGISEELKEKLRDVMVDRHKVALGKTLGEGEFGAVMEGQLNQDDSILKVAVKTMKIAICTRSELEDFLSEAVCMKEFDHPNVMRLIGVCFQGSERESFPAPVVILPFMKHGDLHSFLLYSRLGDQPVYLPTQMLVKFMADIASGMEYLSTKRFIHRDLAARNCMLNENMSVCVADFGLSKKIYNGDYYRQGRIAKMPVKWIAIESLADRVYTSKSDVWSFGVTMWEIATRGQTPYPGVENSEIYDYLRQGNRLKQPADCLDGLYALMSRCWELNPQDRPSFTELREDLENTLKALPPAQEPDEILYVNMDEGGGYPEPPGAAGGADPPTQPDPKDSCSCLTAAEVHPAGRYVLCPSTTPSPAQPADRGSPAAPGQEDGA
Description: as §1

recombinant Human PDGFRα = recombinant Human PDGFRα (Homo sapiens, UniProt P16234); experiment: z'-LYTE FRET kinase activity assay, PDGFRα
Chain of recombinant Human PDGFRα (P16234 24-1089): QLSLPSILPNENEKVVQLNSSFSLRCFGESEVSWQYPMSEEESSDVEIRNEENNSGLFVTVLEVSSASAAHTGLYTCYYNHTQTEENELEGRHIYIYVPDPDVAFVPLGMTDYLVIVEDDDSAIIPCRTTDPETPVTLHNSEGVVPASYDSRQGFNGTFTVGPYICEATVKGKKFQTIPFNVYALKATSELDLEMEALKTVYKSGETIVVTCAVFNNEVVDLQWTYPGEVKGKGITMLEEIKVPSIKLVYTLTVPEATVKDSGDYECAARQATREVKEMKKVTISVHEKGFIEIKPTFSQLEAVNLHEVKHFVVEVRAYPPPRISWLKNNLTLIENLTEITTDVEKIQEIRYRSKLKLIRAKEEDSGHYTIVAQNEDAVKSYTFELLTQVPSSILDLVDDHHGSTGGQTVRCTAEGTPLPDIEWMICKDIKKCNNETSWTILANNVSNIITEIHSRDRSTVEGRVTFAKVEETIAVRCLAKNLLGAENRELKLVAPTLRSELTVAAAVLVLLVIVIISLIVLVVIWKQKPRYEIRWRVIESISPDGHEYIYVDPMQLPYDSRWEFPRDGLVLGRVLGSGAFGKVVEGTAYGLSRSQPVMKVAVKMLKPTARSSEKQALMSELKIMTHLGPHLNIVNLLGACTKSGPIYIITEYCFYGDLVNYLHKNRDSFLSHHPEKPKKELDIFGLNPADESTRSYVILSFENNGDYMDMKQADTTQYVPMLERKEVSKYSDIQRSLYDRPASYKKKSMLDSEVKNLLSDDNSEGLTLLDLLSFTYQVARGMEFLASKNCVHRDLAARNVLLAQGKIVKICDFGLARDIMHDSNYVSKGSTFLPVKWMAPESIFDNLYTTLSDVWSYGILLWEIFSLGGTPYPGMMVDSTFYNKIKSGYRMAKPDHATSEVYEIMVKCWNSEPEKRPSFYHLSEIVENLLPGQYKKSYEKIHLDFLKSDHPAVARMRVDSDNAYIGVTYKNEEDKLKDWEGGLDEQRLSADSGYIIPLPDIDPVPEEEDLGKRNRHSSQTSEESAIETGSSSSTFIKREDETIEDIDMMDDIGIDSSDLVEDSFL
Description: as §1

[2] = Foretinib-TCO (11) IC50 value divided by Foretinib IC50 value

IC50 (recombinant human MET): 697 nM
change of MET IC50 relative to Foretinib (loss in drug activity) (recombinant human MET; from 28.7 nM to 697.4 nM): over 24 fold
Structure (SMILES): COc1cc2c(Oc3ccc(NC(=O)C4(C(=O)Nc5ccc(F)cc5)CC4)cc3F)ccnc2cc1OCCCN1CCN(C(=O)CCc2ccc3n2[B-](F)(F)[N+]2=C(C)C=C(C)C2=C3)CC1 [Foretinib-BODIPY-FL, 5,5-difluoro-7-(3-(4-(3-((4-(2-fluoro-4-(1-((4-fluorophenyl)carbamoyl)cyclopropanecarboxamido)phenoxy)-6-methoxyquinolin-7-yl)oxy)propyl)piperazin-1-yl)-3-oxopropyl)-1,3-dimethyl-5H-dipyrrolo[1,2-c:2',1'-f][1,3,2]diazaborinin-4-ium-5-uide]
effect on MET phosphorylation [1]: decrease in MET phosphorylation

IC50 (recombinant human MET): 1.48 nM
Structure (SMILES): O=C(NCCn1cc(-c2cnc3nnn(Cc4ccc5ncccc5c4)c3n2)cn1)OC1CC/C=C/CCC1 (centres unmarked) [PF04217903-TCO, (E)-cyclooct-4-en-1-yl (2-(4-(1-(quinolin-6-ylmethyl)-1H-[1,2,3]triazolo[4,5-b]pyrazin-6-yl)-1H-pyrazol-1-yl)ethyl)carbamate]

IC50 (recombinant Human KDR): 150 nM
Fold Change (TCO/Foretinib) KDR (recombinant Human KDR; [2]): 6.2
IC50 (recombinant Human RON): 82.7 nM
Fold Change (TCO/Foretinib) RON (recombinant Human RON; [2]): 4.1
IC50 (recombinant human AXL): 72.5 nM
Fold Change (TCO/Foretinib) AXL (recombinant human AXL; [2]): 3.4
IC50 (recombinant human MET): 88.6 nM
Fold Change (TCO/Foretinib) MET (recombinant human MET; [2]): 3.1
IC50 (recombinant Human PDGFRα): 265 nM
Fold Change (TCO/Foretinib) PDGFRα (recombinant Human PDGFRα; [2]): 4.5
Structure (SMILES): COc1cc2c(Oc3ccc(NC(=O)C4(C(=O)Nc5ccc(F)cc5)CC4)cc3F)ccnc2cc1OCCCN1CCN(C(=O)OC2CC/C=C/CCC2)CC1 (centres unmarked) [Foretinib-TCO, (E)-cyclooct-4-en-1-yl 4-(3-((4-(2-fluoro-4-(1-((4-fluorophenyl)carbamoyl)cyclopropanecarboxamido)phenoxy)-6-methoxyquinolin-7-yl)oxy)propyl)piperazine-1-carboxylate]
effect on MET phosphorylation [1]: decrease in MET phosphorylation
potency in decreasing MET phosphorylation compared with the BODIPY-FL (12) version ([1]; OVCA429 cells, 0.1-1 μM, HGF stimulation, Western blot): greater potency

Structure (SMILES): COc1cc2c(Oc3ccc(NC(=O)C4(C(=O)Nc5ccc(F)cc5)CC4)cc3F)ccnc2cc1OCCCN1CCOCC1 [Foretinib, N1’-[3-fluoro-4-[[6-methoxy-7-(3-morpholinopropoxy)-4-quinolinyl]oxy]phenyl]-N1-(4-fluorophenyl)cyclopropane-1,1-dicarboxamide, reference compound]
effect on MET phosphorylation [1]: complete decrease in MET phosphorylation
